US9175058B2, “Soluble immune response suppressor polypeptides and treatment of multiple sclerosis and other autoimmune diseases” (THE BOARD OF REGENTS OF THE UNIVERSITY OF TEXAS SYSTEM, priority 2004, dated 2015)
No end group written: not given here.

Experiments:
Format in all cases: in vivo, mouse
C57/BL6 mice = assay: Induction of acute EAE by active immunization with MOG peptide 35-55; set-up: dose or concentration left out as unconfirmed; conditions: day 21, s.c. immunization with peptide in IFA, pertussis toxin, FIG. 1
acute EAE in B6 mice [1] = assay: Parenteral (injected) SIRS peptide 1-21 in acute EAE induced by MOG peptide 35-55; conditions: day −7 through day 14 post immunization, n=8/group; for inhibition of EAE compared to placebo: FIG. 2
SOCS-3 [2] = assay: Quantitative PCR of SOCS-3 transcripts in spleen and spinal cord of SIRS peptide-fed EAE mice; conditions: for Splenic SOCS-3 transcript level normalized to b-actin: spleen, day 23-26 post active immunization
SOCS-1 [3] = assay: Quantitative PCR of SOCS-1 transcripts in spleen and spinal cord of SIRS peptide-fed EAE mice; conditions: for SOCS-1 transcript level in CNS target tissue normalized to b-actin: spinal cord, day 23-26 post active immunization
Source text: (§1) Quantitative PCR can be performed for nominal EAE cytokine or transcript of interest. In particular, the mean measured transcript levels for IL-2/IFN-γ (Th1-like), IL-4/IL-10 (Th2-like) and other nominal biologic response modifiers of interest (e.g. TGF-β, IL-1, IL-6, IL-12, TNF-α) will be normalized to the b-actin control and expressed as % b-actin molecules.
(§2) Inflamed spinal cords from soluble immune response suppressor peptide-fed B6 mice (active treatment group) or from mock fed donor mice (control) were utilized for the experiments below. Intact spinal cord can be ejected by injecting saline into the distal end of the spinal canal and stored in RNALater (Ambion). The spinal cord is disrupted and the resulting cell suspension is filtered through a Falcon Cell Strainer 2350 (Becton Dickinson, San Jose, Calif.). Total RNA was processed on day 23-26 post active immunization, and relative numbers of transcripts for IFN-γ, IL-4, IL-10, SOCS-1, SOCS-2, and SOCS-3 were determined by quantitative PCR. The measured mean transcript levels were normalized to b-actin control (normalization mean=COI mean/b-actin×100) and expressed as % b-actin molecules.

IL-10 = assay: Quantitative PCR of IL-10 transcripts in spleen and spinal cord of SIRS peptide-fed EAE mice
Source text: as §1, §2

EAE in B6 recipients = assay: Adoptive transfer of MOG-restimulated splenocytes from SIRS peptide-injected donors to B6 recipients; conditions: recipients of 10×10^6 MOG-activated splenocytes i.p. from donors injected with 10 mg day −7 through day +14, FIG. 3
Procedure: B6 mice effector donors were actively immunized with myelin oligodendrocyte glycoprotein peptide 35-55 described above (day 0) and injected (day −7 through day +14 post-immunization) with 0.1 ml of control saline (n=8) or 10 mg of soluble immune response suppressor peptide 1-21 (n=8). On day 14 post inoculation, splenocytes from both saline-injected (mock control) and soluble immune response suppressor peptide-injected (active treatment) immunized donor mice were re-stimulated in vitro with […] myelin oligodendrocyte glycoprotein peptide 35-55 at 20×10^6 splenocytes for >1 hour and then diluted to 2-4 million cells/ml and cultured for 48-72 hours in RPMi with 10% FCS and 1% Pen/Strep. Myelin oligodendrocyte glycoprotein-restimulated cells were washed, counted and passively transferred (10×10^6) i.p. into 8-10 week old female B6 recipients.
The control group reached a maximum disease score of 2.1.

SOCS-3 [4] = assay: Quantitative PCR of SOCS-3 transcripts in spleen and spinal cord of SIRS peptide-fed EAE mice; conditions: for SOCS-3 transcript level in CNS target tissue normalized to b-actin: spinal cord, day 23-26 post active immunization
Source text: as §1, §2

SOCS-1 [5] = assay: Quantitative PCR of SOCS-1 transcripts in spleen and spinal cord of SIRS peptide-fed EAE mice; conditions: for Splenic SOCS-1 transcript level normalized to b-actin: spleen, day 23-26 post active immunization
IFN-γ = assay: Quantitative PCR of IFN-γ transcripts in spleen and spinal cord of SIRS peptide-fed EAE mice
Source text: as §1, §2

SOCS-2 = assay: Quantitative PCR of SOCS-2 transcripts in spleen and spinal cord of SIRS peptide-fed EAE mice
Source text: as §1, §2

[6] = tested on: diabetes mellitus in NOD mice; assay: Ingested SIRS peptide 1-21 in spontaneous diabetes of NOD mice; conditions: NOD female mice fed 100 μg daily from age ten weeks, FIG. 6 and FIG. 7
Procedure: NOD female mice (NOD MrkTacfBR) were obtained from Taconic Farms at eight weeks of age and feeding with mock (n=12) or 100 μg SIRS peptide 1-21 (n=6) in 0.1 ml DPBS daily was initiated at ten weeks. One hundred micrograms was used because this was an effective dose for inhibiting EAE (experimental autoimmune encephalomyelitis) in mice. The mice were maintained and fed under SPF conditions in microisolators, and handled under negative pressure sterile hoods. Surveillance mice were maintained with experimental mice and examined regularly for routine murine pathogens.
Mice were followed after initiation of feeding by weekly blood glucose determination (Life Scan One Touch II, Johnson & Johnson) beginning at week 18 thru 22. Animals were considered diabetic if two consecutive blood glucose determinations were above >11.1 mmol/l or >[…]. […]
Mock or SIRS peptide 1-21 was administered using a 2.5 cm syringe fitted with a 22-24 gauge ball point needle directly to the stomach and proximal small intestine (Thomas Scientific, Swedesboro, N.J.) daily to NOD mice beginning at age ten weeks. The peptide was directly delivered to the distal esophagus, stomach and proximal small intestine (as determined experimentally by injecting Evans blue during routine feeding and subsequent sacrifice). […]

IL-4 = assay: Quantitative PCR of IL-4 transcripts in spleen and spinal cord of SIRS peptide-fed EAE mice; conditions: for IL-4 transcript level in CNS target tissue normalized to b-actin: spinal cord, day 23-26 post active immunization
Source text: as §1, §2

acute EAE in B6 mice [7] = assay: Ingested (gavaged) SIRS peptide 1-21 in acute EAE induced by MOG peptide 35-55
[8] = splenic samples from peptide-fed mice
[9] = CNS target organ (spinal cord) of peptide-fed mice
[10] = splenic samples, data not shown

For “MEVGWYRSPFSRVVHLYRNGK [Synthetic peptide 35-55 from myelin oligodendrocyte glycoprotein, used to induce EAE]”, the “mean clinical score (scale 0-6)” value (C57/BL6 mice) was 3.44.

With MTEENQQSSQPKTTINNAGDS the “inhibition of EAE compared to placebo” value (acute EAE in B6 mice [1]; 0.1 mg injected) was “no significant inhibition”, the “inhibition of EAE compared to placebo” value (acute EAE in B6 mice [1]; 1 mg injected) was “no significant inhibition” and the “inhibition of disease severity compared to placebo” value (acute EAE in B6 mice [1]; 10 mg injected (s.c.), FIG. 2, ρ<0.001) was “significant inhibition of disease severity”. For the same sequence, the “Splenic SOCS-3 transcript level normalized to b-actin” value (SOCS-3 [2]; fed 0.1 mg) was 0.38 % b-actin molecules, the “Splenic SOCS-3 transcript level normalized to b-actin” value (SOCS-3 [2]; fed 1 mg) was 0.28 % b-actin molecules and the “Splenic SOCS-3 transcript level normalized to b-actin” value (SOCS-3 [2]; fed 10 mg) was 0.21 % b-actin molecules. The “Splenic SOCS-3 transcript level normalized to b-actin” value (SOCS-3 [2]; fed 100 mg) was 0.18 % b-actin molecules, the “decrease in SOCS-3 compared to control” value (SOCS-3 [2]; [8]) was 60% and the “increase in SOCS-1 expression” value (SOCS-1 [3]; [9]) was 75-175 % of control. The “SOCS-1 transcript level in CNS target tissue normalized to b-actin” value (SOCS-1 [3]; fed 0.1 mg) was 0.14 % b-actin molecules, the “SOCS-1 transcript level in CNS target tissue normalized to b-actin” value (SOCS-1 [3]; fed 1 mg) was 0.19 % b-actin molecules and the “SOCS-1 transcript level in CNS target tissue normalized to b-actin” value (SOCS-1 [3]; fed 10 mg) was 0.22 % b-actin molecules. For the same sequence, the “SOCS-1 transcript level in CNS target tissue normalized to b-actin” value (SOCS-1 [3]; fed 100 mg) was 0.14 % b-actin molecules, the “difference in IL-10 compared to control” value (IL-10; cord samples) was “no significant differences” and the “difference in IL-10 compared to control” value (IL-10; [10]) was “no significant difference”. The “clinical disease in recipients after passive transfer” value (EAE in B6 recipients) was “did not have any prolonged clinical disease”, the “decrease in SOCS-3” value (SOCS-3 [4]; [9]) was 45% and the “SOCS-3 transcript level in CNS target tissue normalized to b-actin” value (SOCS-3 [4]; fed 0.1 mg) was 0.45 % b-actin molecules. For the same sequence, the “SOCS-3 transcript level in CNS target tissue normalized to b-actin” value (SOCS-3 [4]; fed 1 mg) was 0.54 % b-actin molecules, the “SOCS-3 transcript level in CNS target tissue normalized to b-actin” value (SOCS-3 [4]; fed 10 mg) was 0.28 % b-actin molecules and the “SOCS-3 transcript level in CNS target tissue normalized to b-actin” value (SOCS-3 [4]; fed 100 mg) was 0.22 % b-actin molecules. The “Splenic SOCS-1 transcript level normalized to b-actin” value (SOCS-1 [5]; fed 0.1 mg) was 0.28 % b-actin molecules, the “Splenic SOCS-1 transcript level normalized to b-actin” value (SOCS-1 [5]; fed 1 mg) was 0.30 % b-actin molecules and the “Splenic SOCS-1 transcript level normalized to b-actin” value (SOCS-1 [5]; fed 10 mg) was 0.23 % b-actin molecules. For the same sequence, the “Splenic SOCS-1 transcript level normalized to b-actin” value (SOCS-1 [5]; fed 100 mg) was 0.23 % b-actin molecules, the “decrease in SOCS-1 compared to control” value (SOCS-1 [5]; [8]) was “up to 30%” and the “difference in IFN-γ compared to control” value (IFN-γ; cord samples) was “no significant differences”. The “difference in IFN-γ compared to control” value (IFN-γ; [10]) was “no significant difference”, the “difference in SOCS-2 compared to control” value (SOCS-2; cord samples) was “no significant differences” and the “difference in SOCS-2 compared to control” value (SOCS-2; [10]) was “no significant difference”. For the same sequence, the “frequency of mice becoming diabetic compared to mock treated mice” value [6] was “decreased frequency of mice becoming diabetic”, the “onset of T1DM compared to mock treated mice” value [6] was “significantly delayed onset of T1DM” and the “decrease in IL-4 expression” value (IL-4; [9]) was “up to 80%”. The “IL-4 transcript level in CNS target tissue normalized to b-actin” value (IL-4; fed 0.1 mg) was 0.04 % b-actin molecules, the “IL-4 transcript level in CNS target tissue normalized to b-actin” value (IL-4; fed 1 mg) was 0.15 % b-actin molecules and the “IL-4 transcript level in CNS target tissue normalized to b-actin” value (IL-4; fed 10 mg) was 0.05 % b-actin molecules. The “IL-4 transcript level in CNS target tissue normalized to b-actin” value (IL-4; fed 100 mg) was 0.02 % b-actin molecules, the “difference in IL-4 compared to control” value (IL-4; [10]) was “no significant difference” and the “delay in the onset of disease compared to placebo” value (shortened to “delay … compared to placebo”) (acute EAE in B6 mice [7]; 0.1 mg gavaged, FIG. 4) was “prolonged delay in the onset of disease”. The “inhibition of EAE disease severity compared to placebo” value (acute EAE in B6 mice [7]; 0.1 mg gavaged, day −7 through day 14, n=4/group, FIG. 4) was “significant inhibition of disease severity”, the “inhibition of EAE disease severity compared to placebo” value (acute EAE in B6 mice [7]; 0.1 mg gavaged, day −7 through day 14, n=4/group, FIG. 4, listed as soluble immune response suppressor peptide) was “significant inhibition” and the “inhibition of EAE compared to placebo” value (acute EAE in B6 mice [7]; 0.1 mg gavaged, repeat experiment, n=4/group, FIG. 5) was “no significant inhibition”. For the same sequence, the “inhibition of EAE compared to placebo” value (acute EAE in B6 mice [7]; 1 mg gavaged, day −7 through day 14, n=4/group, FIG. 4) was “significant inhibition”, the “delay … compared to placebo” value (acute EAE in B6 mice [7]; 1 mg gavaged, repeat experiment, FIG. 5) was “prolonged delay in the onset of disease” and the “inhibition of disease severity compared to placebo” value (acute EAE in B6 mice [7]; 1 mg gavaged, repeat experiment, FIG. 5, p<0.038 Mann-Whitney) was “significant inhibition of disease severity”. For the same sequence, the “delay … compared to placebo” value (acute EAE in B6 mice [7]; 10 mg gavaged, FIG. 4) was “prolonged delay in the onset of disease”, the “inhibition of disease severity compared to placebo” value (acute EAE in B6 mice [7]; 10 mg gavaged, day −7 through day 14, n=4/group, FIG. 4) was “significant inhibition of disease severity” and the “delay … compared to placebo” value (acute EAE in B6 mice [7]; 100 mg gavaged, FIG. 4) was “prolonged delay in the onset of disease”. For the same sequence, the “inhibition of disease severity compared to placebo” value (acute EAE in B6 mice [7]; 100 mg gavaged, day −7 through day 14, n=4/group, FIG. 4) was “significant inhibition of disease severity”, the “delay … compared to placebo” value (acute EAE in B6 mice [7]; 100 mg gavaged, repeat experiment, FIG. 5) was “prolonged delay in the onset of disease” and the “inhibition of disease severity compared to placebo” value (acute EAE in B6 mice [7]; 100 mg gavaged, repeat experiment, FIG. 5, p<0.001) was “significant inhibition of disease severity”.
